Laboratory results from patent US10695399B2, “Peptides for prevention of HIV infection” (SYRACUSE UNIVERSITY, priority 2017, dated 2020).
Residues, ends and D or L forms follow the SMILES beside them. *: point of attachment. Dansyl = CN(C)c1cccc2c(S(=O)(=O)*)cccc12

How the values were obtained:
[1] = Preliminary toxicity studies
[2] = molecular target: T1, SEVI (aggregated semen enhancer of virus infection) (Homo sapiens, UniProt P15309); assay: Dansyl fluorescence binding study with SEVI
T1 construct: SEVI is the aggregated portion of the human protein that promotes infectivity
T1 sequence (P15309 248-286 limits assumed): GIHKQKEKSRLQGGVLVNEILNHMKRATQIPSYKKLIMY
Description: FIG. 1A is a graph of fluorescence spectra of a first dansylated peptide according to the present invention in a binding study with PAP and SEVI at a first concentration;
FIG. 1B is a graph of fluorescence spectra of the first dansylated peptide according to the present invention in a binding study with PAP and SEVI at a first concentration incubated for 24 hours;
FIG. 2A is a graph of fluorescence spectra of a first dansylated peptide according to the present invention in a binding study with PAP and SEVI at a second concentration; and
FIG. 2B is a graph of fluorescence spectra of a second dansylated peptide according to the present invention in a binding study with PAP and SEVI at a second concentration.
Dansyl is the fluorescent dye that is attached to peptides. A change in Dansyl fluorescence indicates change in the environment, i.e. binding. The physiological concentration of PAP and SEVI is 5 micromolar.

| SMILES | toxicity [1] | Kd [2] |
| --- | --- | --- |
| CC[C@H](C)[C@H](NC(=O)[C@H](CCC(=O)O)NC(=O)[C@H](CCC(N)=O)NC(=O)[C@@H](NC(=O)[C@@H](NC(=O)[C@H](CCC(=O)O)NC(=O)[C@H](CCC(=O)O)NC(=O)[C@H](Cc1ccccc1)NS(=O)(=O)c1cccc2c(N(C)C)cccc12)[C@@H](C)CC)C(C)C)C(=O)N[C@@H](CCC(=O)O)C(=O)N[C@@H](CC(=O)O)C(=O)N[C@@H](Cc1ccccc1)C(=O)N[C@@H](CC(C)C)C(=O)N[C@@H](CCC(=O)O)C(=O)N[C@@H](CC(N)=O)C(=O)N[C@@H](CC(C)C)C(=O)N[C@H](C(N)=O)C(C)C [Peptide 1, FEEIVQEIEDFLENLV] (Dansyl-FEEIVQEIEDFLENLV-NH2) | non-toxic | < 5 µM |
| CC[C@H](C)[C@H](NC(=O)CNS(=O)(=O)c1cccc2c(N(C)C)cccc12)C(=O)NCC(=O)N[C@@H](C)C(=O)N[C@H](C(=O)N[C@@H](CC(C)C)C(=O)N[C@@H](CCC(=O)O)C(=O)N[C@H](C(=O)N[C@@H](CC(C)C)C(=O)N[C@H](C(=O)N[C@H](C(=O)NCC(=O)N[C@@H](CC(C)C)C(=O)N1CCC[C@H]1C(=O)N[C@@H](C)C(=O)N[C@@H](CC(C)C)C(=O)N[C@H](C(=O)N[C@@H](CO)C(=O)N[C@@H](Cc1c[nH]c2ccccc12)C(=O)N[C@H](C(=O)N[C@@H](CCC(=O)O)C(=O)N[C@@H](CCC(=O)O)C(=O)N[C@@H](CCC(=O)O)C(=O)N[C@@H](CCC(=O)O)C(=O)N[C@@H](CCC(N)=O)C(=O)N[C@@H](CCC(N)=O)C(N)=O)[C@@H](C)CC)[C@@H](C)CC)[C@@H](C)O)[C@@H](C)O)C(C)C)C(C)C [Peptide 2] | non-toxic |  |
